The values below come from patent publication US9920049B2 (priority 2014, dated 2018).

pIC50: −log10 of the molar value.

For this assay, the system named is HBsAg. Put plainly: HBsAg assay (CLIA of secreted HBsAg in HepG2.2.15 culture supernatant). To be noted: Hepatitis B virus. It is filed as cell-based, HBV. On the procedure: HepG2.2.15 cells (Acs et al. Proc Natl Acad Sci USA, 84, (1987), 4641-4), a constitutively HBV-expressing cell line were cultured in DMEM+Glutamax-I medium (Invitrogen, Carlsbad, Calif., USA), supplemented with 10% fetal bovine serum (Invitrogen) and G418 (Invitrogen) at a final concentration of 200 mg/L and maintained in 5% CO2 at 37° C.
HepG2.2.15 cells were seeded in duplicate into white, 96-well plates at 1.5×10^4 cells/well. The cells were treated with a three-fold serial dilution series of the compounds in DMSO. The final DMSO concentration in all wells was 1% and DMSO was used as no drug control.
The HBsAg chemiluminescence immunoassay (CLIA) kit (Autobio Diagnostics Co., Zhengzhou, China, Catalog number: CL0310-2) was used to measure the levels of secreted HBV antigens semi-quantitatively. For the detection 50 μL/well culture supernatant was used and HBsAg was quantified using HBsAg chemiluminescence immunoassay (CLIA) kit (Autobio Diagnostics Co., Zhengzhou, China, Catalog number: CL0310-2), 50 μl of the supernatant was transferred to the CLIA assay plate and 50 μL of enzyme conjugate reagent was added into each well. The plates were sealed and gently agitated for 1 hour at room temperature. The supernatant-enzyme-mixture was discarded and wells were washed 6 times with 300 μL of PBS. The residual liquid was removed by plating the CLIA plate right side down on absorbent tissue paper. 25 μL of substrates A and B were added to each well. Luminance was measured using a luminometer (Mithras LB 940 Multimode Microplate Reader) after 10 minutes incubation. Dose-response curves were generated and the IC50 value was extrapolated by using the E-WorkBook Suite (ID Business Solutions Ltd., Guildford, UK).
The compounds of the present invention were tested for their capacity to inhibit HBsAg as described herein.
Take `CCC1Cc2cc(OCc3ccccc3)c(OC)cc2-c2cc(=O)c(C(=O)NC(C)CO)cn21` (stereo not shown) [Example 7, 9-benzyloxy-6-ethyl-N-(2-hydroxy-1-methyl-ethyl)-10-methoxy-2-oxo-6,7-dihydrobenzo[a]quinolizine-3-carboxamide]: the pIC50 was 5.11.

In the case of `CCC1Cc2cc(OCc3ccccc3)c(OC)cc2-c2cc(=O)c(C(=O)NC(C)CN(C)C)cn21` (stereo not shown) [Example 11, 9-benzyloxy-N-[2-(dimethylamino)-1-methyl-ethyl]-6-ethyl-10-methoxy-2-oxo-6,7-dihydrobenzo[a]quinolizine-3-carboxamide], the pIC50 was 4.62.

With `CCC1Cc2cc(OCc3ccccc3)c(OC)cc2-c2cc(=O)c(C(=O)NO)cn21` (stereo not shown) [Example 10, 9-benzyloxy-6-ethyl-10-methoxy-2-oxo-6,7-dihydrobenzo[a]quinolizine-3-carbohydroxamic Acid], the pIC50 was 4.69.

In turn, `CCC1Cc2cc(OCCCOC)c(OC)cc2-c2cc(=O)c(C(=O)Nc3nnn[nH]3)cn21` (stereo not shown) [Example 14, 6-ethyl-10-methoxy-9-(3-methoxypropoxy)-2-oxo-N-(1H-tetrazol-5-yl)-6,7-dihydrobenzo[a]quinolizine-3-carboxamide] gave a pIC50 of 5.96.

`COCCOc1cc(Cl)c2c(c1)CC(C(C)C)n1cc(C(=O)Nc3nnn[nH]3)c(=O)cc1-2` (stereo not shown) [Example 34, 11-chloro-6-isopropyl-9-(2-methoxyethoxy)-2-oxo-N-(1H-tetrazol-5-yl)-6,7-dihydrobenzo[a]quinolizine-3-carboxamide] gave a pIC50 of 4.74.

In turn, `CCC1Cc2cc(OCCCOC)c(OC)cc2-c2cc(=O)c(C(=O)NC(C)COC)cn21` (stereo not shown) [Example 16, 6-ethyl-10-methoxy-N-(2-methoxy-1-methyl-ethyl)-9-(3-methoxypropoxy)-2-oxo-6,7-dihydrobenzo[a]quinolizine-3-carboxamide] had a pIC50 of 4.74.

With `CCC1Cc2cc(OCc3ccccc3)c(OC)cc2-c2cc(=O)c(C(=O)NC(C)COC)cn21` (stereo not shown) [Example 3, 9-benzyloxy-6-ethyl-10-methoxy-N-(2-methoxy-1-methyl-ethyl)-2-oxo-6,7-dihydrobenzo[a]quinolizine-3-carboxamide], the pIC50 is 4.51.

Turning to `CCC1Cc2cc(OCCCOC)c(OC)cc2-c2cc(=O)c(CN3CCOCC3C(=O)O)cn21` (stereo not shown) [Example 21, 4-[[6-ethyl-10-methoxy-9-(3-methoxypropoxy)-2-oxo-6,7-dihydrobenzo[a]quinolizin-3-yl]methyl]morpholine-3-carboxylic Acid], the pIC50 was 4.71.

`COc1cc2c(cc1OC)-c1cc(=O)c(C(=O)Nc3nnn[nH]3)cn1C(CC(F)(F)F)C2` (stereo not shown) [Example 35, 9,10-dimethoxy-2-oxo-N-(1H-tetrazol-5-yl)-6-(2,2,2-trifluoroethyl)-6,7-dihydrobenzo[a]quinolizine-3-carboxamide]: the pIC50 was 4.89.

As to `CCC1Cc2cc(OCC3CC3)c(OC)cc2-c2cc(=O)c(C(=O)NC(C)COC)cn21` (stereo not shown) [Example 19, 9-(cyclopropylmethoxy)-6-ethyl-10-methoxy-N-(2-methoxy-1-methyl-ethyl)-2-oxo-6,7-dihydrobenzo[a]quinolizine-3-carboxamide], the pIC50 is 5.10.
